Data: ChEMBL document CHEMBL4483862, “Open-source discovery of chemical leads for next-generation chemoprotective antimalarials” (2018)

Tested on: Plasmodium berghei
Assay: Luciferase/luciferin-expressing antifolate-resistant parasites were used to infect a culture of HepG2 cells that were pre-incubated with compounds. Infected hepatocytes emit light due to the luciferase reaction. Assay results are presented as the percent inhibition of light emission compared to control. […]
Format: functional
Settings: sporozoite; for IC90: read-out: LUCIFERASE INFECTION ASSAY - IC90
[1] = read-out: LUCIFERASE INFECTION ASSAY - IC50

Compound	IC90 [µM]	IC50 [1] [µM]	further results
Cc1ccc(NCc2c(Cl)nc3sccn23)c(C)c1	> 11.3		IC50 (HEPG2TOX_HILL_SLOPE 1.69, HEPG2TOX_R_SQUARED 0.916, PBLUC_HILL_SLOPE 2.14, PBLUC_R_SQUARED 0.29, read-out: LUCIFERASE INFECTION ASSAY - IC50): 10.3 µM
O=C(NC1CCN(C(=O)c2ccoc2)CC1)c1cccc2c3c([nH]c12)CCCCC3	> 10		IC50 (PBLUC_HILL_SLOPE 15.4, PBLUC_R_SQUARED 0.491, read-out: LUCIFERASE INFECTION ASSAY - IC50): 9.35 µM
O=C(NC1CCSc2ccccc21)c1cnn(Cc2ccccc2Cl)c1 (centres undefined)	> 10		IC50 (HEPG2TOX_HILL_SLOPE 8.01, HEPG2TOX_R_SQUARED 0.477, PBLUC_HILL_SLOPE 11.5, PBLUC_R_SQUARED 0.343, read-out: LUCIFERASE INFECTION ASSAY - IC50): 9.41 µM
Cc1c(C(=O)NCc2ccc(Cl)c(Cl)c2)sc(=O)n1Cc1ccc(S(=O)(=O)N(C)C)cc1	> 6.41		IC50 (PBLUC_HILL_SLOPE 9.17, PBLUC_R_SQUARED 0.333, read-out: LUCIFERASE INFECTION ASSAY - IC50): 5.25 µM
COc1ccc([N+]2=C3CCCCCN3CC2(O)c2ccc(-c3ccccc3)cc2)cc1 (centres undefined)	> 10		IC50 (HEPG2TOX_HILL_SLOPE 6.91, HEPG2TOX_R_SQUARED 0.498, PBLUC_HILL_SLOPE 1.91, PBLUC_R_SQUARED 0.528, read-out: LUCIFERASE INFECTION ASSAY - IC50): 3.24 µM
CC1C(c2ccccc2)N(C)C(c2ccccc2)CC1(O)c1ccc(F)cc1 (centres undefined)	> 8.01		IC50 (PBLUC_HILL_SLOPE 3.61, PBLUC_R_SQUARED 0.228, read-out: LUCIFERASE INFECTION ASSAY - IC50): 7.47 µM
CCC1CCc2sc(C(=O)NNC(=O)c3cnccn3)cc2C1 (centres undefined)	> 10		IC50 (HEPG2TOX_HILL_SLOPE 2.38, HEPG2TOX_R_SQUARED 0.712, PBLUC_HILL_SLOPE 3.73, PBLUC_R_SQUARED 0.532, read-out: LUCIFERASE INFECTION ASSAY - IC50): 6.76 µM
O=C(Cc1ccc(O)cc1)N1CCc2nc(NCc3cccc(Oc4ccccc4)c3)ncc2C1	4.97		IC50 (HEPG2TOX_HILL_SLOPE 1.26, HEPG2TOX_R_SQUARED 0.949, PBLUC_HILL_SLOPE 2.67, PBLUC_R_SQUARED 0.466, read-out: LUCIFERASE INFECTION ASSAY - IC50): 2.18 µM
N=C(Cc1ccc([N+](=O)[O-])cc1)NOC(=O)c1cccs1	> 10.8	> 10.8	
CC(C)(C)c1ccc(-c2cnc3cnc(-c4ccc(N)nc4)cn23)cc1	4.41		IC50 (PBLUC_HILL_SLOPE 8.01, PBLUC_R_SQUARED 0.801, read-out: LUCIFERASE INFECTION ASSAY - IC50): 3.35 µM
Cn1c(NCC2CC2)nc2cnc(Nc3cccc(Oc4ccccc4)c3)cc21	3.77		IC50 (HEPG2TOX_HILL_SLOPE 1.32, HEPG2TOX_R_SQUARED 0.983, PBLUC_HILL_SLOPE 3.67, PBLUC_R_SQUARED 0.52, read-out: LUCIFERASE INFECTION ASSAY - IC50): 2.07 µM
c1nc(NCC2(N3CCOCC3)CCCCC2)c2ccsc2n1	> 10	> 10	
CCCOc1ccc(S(=O)(=O)NC2CCCCC2)c2ccccc12	8.57		IC50 (HEPG2TOX_HILL_SLOPE 9.17, HEPG2TOX_R_SQUARED 0.712, PBLUC_HILL_SLOPE 2.91, PBLUC_R_SQUARED 0.385, read-out: LUCIFERASE INFECTION ASSAY - IC50): 4.03 µM
CC(C)(C)c1cc(N2Cc3ccccc3C2=N)cc(C(C)(C)C)c1	> 10	> 10	
CS(=O)(=O)Nc1cccc(-c2cnc(N)c(-c3cccc(C(F)(F)F)c3)c2)c1	0.0724		IC50 (HEPG2TOX_HILL_SLOPE 0.275, HEPG2TOX_R_SQUARED 0.333, PBLUC_HILL_SLOPE 1.7, PBLUC_R_SQUARED 0.794, read-out: LUCIFERASE INFECTION ASSAY - IC50): 0.0199 µM
COc1ccccc1-c1cc(-c2cccc(OC(F)(F)F)c2)cnc1N	> 9.16	> 9.16	
Cc1ccc(-c2oc(NC(=O)c3cncc(Br)c3)c(C#N)c2-c2ccc(C)cc2)cc1	9.82		IC50 (FFLUC_HILL_SLOPE 4.83, FFLUC_R_SQUARED 0.721, HEPG2TOX_HILL_SLOPE 9.42, HEPG2TOX_R_SQUARED 0.907, PBLUC_HILL_SLOPE 30.3, PBLUC_R_SQUARED 0.463, read-out: LUCIFERASE INFECTION ASSAY - IC50): 9.13 µM
O=C(Nc1ccc(N2CCOCC2)nc1)c1ccc(S(=O)(=O)N2CCCc3ccccc32)cc1	> 10		IC50 (HEPG2TOX_HILL_SLOPE 1.57, HEPG2TOX_R_SQUARED 0.865, PBLUC_HILL_SLOPE 1.66, PBLUC_R_SQUARED 0.608, read-out: LUCIFERASE INFECTION ASSAY - IC50): 2.98 µM
CC(C)(C)c1ccc(C(=O)NC(=S)NNC(=O)c2cccc([N+](=O)[O-])c2)cc1	3.57		IC50 (PBLUC_HILL_SLOPE 3.29, PBLUC_R_SQUARED 0.591, read-out: LUCIFERASE INFECTION ASSAY - IC50): 1.83 µM
Cc1[nH]nc2ccnc(-c3cccc(Oc4ccccc4)c3)c12	5.52		IC50 (PBLUC_HILL_SLOPE 4.64, PBLUC_R_SQUARED 0.273, read-out: LUCIFERASE INFECTION ASSAY - IC50): 3.44 µM
CC(C)CN1CCC1(C(=O)NCc1cccc2ccccc12)c1ccccc1 (centres undefined)	> 8.86		IC50 (HEPG2TOX_HILL_SLOPE 0.125, HEPG2TOX_R_SQUARED 0.379, PBLUC_HILL_SLOPE 1.82, PBLUC_R_SQUARED 0.397, read-out: LUCIFERASE INFECTION ASSAY - IC50): 5.57 µM

Compound	IC90 [µM]	IC50 [1] [µM]	further results
Cc1ccc(-c2nc(SCc3nc(=O)c4ccc(C(=O)O)cc4[nH]3)[nH]c2-c2ccc(C)cc2)cc1	> 10	> 10	
O=C(N/N=C/c1cc(Cl)cc(Cl)c1O)N/N=C/c1cc(Cl)cc(Cl)c1O	> 7.57	> 7.57	
COc1cccc(C(O)c2nc(C(=O)Nc3ccc(OCc4ccccc4)cc3)cs2)c1 (centres undefined)	4.39		IC50 (HEPG2TOX_HILL_SLOPE 0.759, HEPG2TOX_R_SQUARED 0.957, PBLUC_HILL_SLOPE 2.06, PBLUC_R_SQUARED 0.859, read-out: LUCIFERASE INFECTION ASSAY - IC50): 1.51 µM
CNc1nc2cnc(Nc3ccc(C(C)C)cc3)cc2n1Cc1ccc(OC)c(OC)c1	> 10		IC50 (PBLUC_HILL_SLOPE 2.59, PBLUC_R_SQUARED 0.223, read-out: LUCIFERASE INFECTION ASSAY - IC50): 6.81 µM
N#Cc1ccc(NCCNc2nc3ccccc3s2)nc1	4.32		IC50 (HEPG2TOX_HILL_SLOPE 2.81, HEPG2TOX_R_SQUARED 0.729, PBLUC_HILL_SLOPE 4.52, PBLUC_R_SQUARED 0.618, read-out: LUCIFERASE INFECTION ASSAY - IC50): 2.66 µM
O=C(Nc1ccncc1)c1cc([N+](=O)[O-])ccc1Sc1ccccc1	> 9.39		IC50 (PBLUC_HILL_SLOPE 0.732, PBLUC_R_SQUARED 0.239, read-out: LUCIFERASE INFECTION ASSAY - IC50): 3.82 µM
CC(=O)O[C@H]1CC[C@]23C(=O)O[C@]45CC[C@H](C6=CC(=O)OC6)[C@@]4(C)CCC2C5CC[C@]3(O)C1	0.747		IC50 (HEPG2TOX_HILL_SLOPE 2.43, HEPG2TOX_R_SQUARED 0.931, PBLUC_HILL_SLOPE 2.64, PBLUC_R_SQUARED 0.666, read-out: LUCIFERASE INFECTION ASSAY - IC50): 0.325 µM
CC(=O)c1ccc(NC(=O)CCn2nnc(-c3ccc(C(C)C)cc3)n2)cc1	> 10		IC50 (PBLUC_HILL_SLOPE 1, PBLUC_R_SQUARED 0.439, read-out: LUCIFERASE INFECTION ASSAY - IC50): 6.32 µM
O=C(/C=C/c1cc([N+](=O)[O-])ccc1OC(F)F)N1CCN(C(c2ccccc2)c2ccccc2)CC1	> 10	> 10	
COc1ccc(-c2cc([N+](=O)[O-])ccc2OCC(=O)NC(=O)NCCC(C)C)cc1	> 10		IC50 (PBLUC_HILL_SLOPE 8.25, PBLUC_R_SQUARED 0.103, read-out: LUCIFERASE INFECTION ASSAY - IC50): 9.42 µM
CC(C)c1ccc2c(c1)/C(=N/NC(=O)c1ccccc1F)C(=O)N2	0.084		IC50 (PBLUC_HILL_SLOPE 280, PBLUC_R_SQUARED 0.522, read-out: LUCIFERASE INFECTION ASSAY - IC50): 0.0833 µM
COc1cc(NS(=O)(=O)c2ccc3ccccc3c2)c(OC)cc1Cl	4.48	2.78	
CC(=O)N(/N=C/c1ccc(F)cc1)C1=NN(C(C)=O)C(c2ccc(F)cc2)S1 (centres undefined)	> 8.2		IC50 (HEPG2TOX_HILL_SLOPE 7.43, HEPG2TOX_R_SQUARED 0.382, read-out: LUCIFERASE INFECTION ASSAY - IC50): > 8.2 µM
CN1CCCN(C(=O)CCNC(=O)/C=C/c2ccco2)c2nc3ccccc3nc21	> 10		IC50 (PBLUC_HILL_SLOPE 1.1, PBLUC_R_SQUARED 0.699, read-out: LUCIFERASE INFECTION ASSAY - IC50): 1.78 µM
Cc1cccc(C(=O)Nc2ccccc2C(=O)OCC(=O)c2c[nH]c3ccccc23)c1	> 10	> 10	
CC(C)(C)c1ccc(C(=O)Nc2nonc2-c2ccc(F)cc2)cc1	> 9.72	> 9.72	
CN(C(=O)Cn1nnc(-c2cccc(C(F)(F)F)c2)n1)C1(C#N)CCCCC1	> 10	> 10	
O=c1c(NS(=O)(=O)c2ccc(Cl)cc2)cccn1Cc1ccc(Cl)c(Cl)c1	> 7.44	> 7.44	
O=C(O)CSc1nc2ccccc2c(=O)n1-c1ccccc1Cl	> 10	> 10	
Cc1ccc(OCc2n[nH]c(=S)n2C2CCCCC2)c2c1CCC2	> 9.61		IC50 (PBLUC_HILL_SLOPE 1.42, PBLUC_R_SQUARED 0.362, read-out: LUCIFERASE INFECTION ASSAY - IC50): > 9.61 µM
COc1ccc(C(CNC(=O)c2ccccc2-c2ncc(-c3ccccc3)o2)N(C)C)cc1 (centres undefined)	> 10		IC50 (PBLUC_HILL_SLOPE 2.7, PBLUC_R_SQUARED 0.455, read-out: LUCIFERASE INFECTION ASSAY - IC50): 5.19 µM
